Test results taken from ChEMBL document CHEMBL1201862, “PubChem BioAssay data set” (2004).
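Where inhibition never reached the appropriate level, the endpoint shown equals the highest concentration tested. Otherwise, values were interpolated linearly from a five-concentration, 48-hour dose response in 96-well plates. GI50: concentration for 50% inhibition of growth.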 Calls of active or inactive are those of the source. Rule as the data show it: active = GI50 up to about 1.1 µM and inactive = higher.

Experiments:
Assay in all cases: growth of human tumour cells (NCI), 48 h
786-0 = system: 786-0
A498 = system: A498
A549 = system: A549
ACHN = system: ACHN
BT-549 = system: BT-549
DU-145 = system: DU-145
EKVX = system: EKVX
HCT-116 = system: HCT-116
HCT-15 = system: HCT-15
HL-60 = system: HL-60
HOP-62 = system: HOP-62
HOP-92 = system: HOP-92
HT-29 = system: HT-29
Hs-578T = system: Hs-578T
IGROV-1 = system: IGROV-1
K562 = system: K562
KM12 = system: KM12
LOX IMVI = system: LOX IMVI
M14 = system: M14
MCF7 = system: MCF7
MDA-MB-231 = system: MDA-MB-231
MDA-MB-435 = system: MDA-MB-435
MDA-N = system: MDA-N
MOLT-4 = system: MOLT-4
Malme-3M = system: Malme-3M
NCI-H226 = system: NCI-H226
NCI-H460 = system: NCI-H460
NCI-H522 = system: NCI-H522
NCI/ADR-RES = system: NCI/ADR-RES
OVCAR-3 = system: OVCAR-3
OVCAR-4 = system: OVCAR-4
OVCAR-5 = system: OVCAR-5
OVCAR-8 = system: OVCAR-8
PC-3 = system: PC-3
RPMI-8226 = system: RPMI-8226
SF-268 = system: SF-268
SF-295 = system: SF-295
SF-539 = system: SF-539
SK-MEL-28 = system: SK-MEL-28
SK-MEL-2 = system: SK-MEL-2
SK-OV-3 = system: SK-OV-3
SN12C = system: SN12C
SNB-19 = system: SNB-19
SNB-75 = system: SNB-75
SR = system: SR
SW-620 = system: SW-620
T47D = system: T47D
TK-10 = system: TK-10
U-251 = system: U-251
UACC-257 = system: UACC-257
UACC-62 = system: UACC-62
UO-31 = system: UO-31
CAKI-1 = system: CAKI-1
CCRF-CEM = system: CCRF-CEM
COLO 205 = system: COLO 205
NCI-H23 = system: NCI-H23
RXF 393 = system: RXF 393
SK-MEL-5 = system: SK-MEL-5

For `CC(=O)OCC1OC(N2C(=O)NC(=O)C3C=C4CCCCC4=CC32)CC1OC(C)=O` (stereo not drawn), the GI50 (786-0) was > 100 µM (inactive), the GI50 (A498) was > 100 µM (inactive) and the GI50 (A549) was > 100 µM (inactive). The GI50 (ACHN) was > 100 µM (inactive), the GI50 (BT-549) was > 100 µM (inactive) and the GI50 (DU-145) was > 100 µM (inactive). The GI50 (EKVX) was > 100 µM (inactive), the GI50 (HCT-116) was > 100 µM (inactive) and the GI50 (HCT-15) was greater than 100 µM. For the same compound, the GI50 (HL-60) was 72.8 µM (inactive), the GI50 (HOP-62) was > 100 µM (inactive) and the GI50 (HOP-92) was > 100 µM (inactive). The GI50 (HT-29) was > 100 µM (inactive), the GI50 (Hs-578T) was > 100 µM (inactive) and the GI50 (IGROV-1) was > 100 µM (inactive). The GI50 (K562) was > 100 µM (inactive), the GI50 (KM12) was > 100 µM (inactive) and the GI50 (LOX IMVI) was > 100 µM (inactive). For the same compound, the GI50 (M14) was > 100 µM (inactive), the GI50 (MCF7) was > 100 µM (inactive) and the GI50 (MDA-MB-231) was > 100 µM (inactive). The GI50 (MDA-MB-435) was > 100 µM (inactive), the GI50 (MDA-N) was > 100 µM (inactive) and the GI50 (MOLT-4) was > 100 µM (inactive). The GI50 (Malme-3M) was > 100 µM (inactive), the GI50 (NCI-H226) was > 100 µM (inactive) and the GI50 (NCI-H460) was > 100 µM (inactive). The GI50 (NCI-H522) was 70 µM (inactive), the GI50 (NCI/ADR-RES) was > 100 µM (inactive) and the GI50 (OVCAR-3) was > 100 µM (inactive). The GI50 (OVCAR-4) was > 100 µM (inactive), the GI50 (OVCAR-5) was > 100 µM (inactive) and the GI50 (OVCAR-8) was > 100 µM (inactive). The GI50 (PC-3) was > 100 µM (inactive), the GI50 (RPMI-8226) was > 100 µM (inactive) and the GI50 (SF-268) was > 100 µM (inactive). For the same compound, the GI50 (SF-295) was > 100 µM (inactive), the GI50 (SF-539) was > 100 µM (inactive) and the GI50 (SK-MEL-28) was > 100 µM (inactive). The GI50 (SK-MEL-2) was > 100 µM (inactive), the GI50 (SK-OV-3) was > 100 µM (inactive) and the GI50 (SN12C) was > 100 µM (inactive). For the same compound, the GI50 (SNB-19) was > 100 µM (inactive), the GI50 (SNB-75) was 56.4 µM (inactive) and the GI50 (SR) was > 100 µM (inactive). The GI50 (SW-620) was > 100 µM (inactive), the GI50 (T47D) was > 100 µM (inactive) and the GI50 (TK-10) was > 100 µM (inactive). For the same compound, the GI50 (U-251) was > 100 µM (inactive), the GI50 (UACC-257) was > 100 µM (inactive) and the GI50 (UACC-62) was > 100 µM (inactive). The GI50 (UO-31) was > 100 µM (inactive).
`N#CC1=C(N)OC2=C(CSc3ccccc32)C1c1ccc(Br)cc1` (stereo not drawn) was tested, and the GI50 (786-0) was 7.83 µM (inactive), the GI50 (A498) was 13 µM (inactive) and the GI50 (A549) was 7.08 µM (inactive). For the same compound, the GI50 (BT-549) was 10.7 µM (inactive), the GI50 (CAKI-1) was 4.49 µM (inactive) and the GI50 (CCRF-CEM) was 2.72 µM (inactive). The GI50 (COLO 205) was 2.94 µM (inactive), the GI50 (DU-145) was 20 µM (inactive) and the GI50 (EKVX) was 2.81 µM (inactive). For the same compound, the GI50 (HCT-116) was 2.96 µM (inactive), the GI50 (HCT-15) was 4.7 µM and the GI50 (HL-60) was 2.59 µM (inactive). The GI50 (HOP-62) was 14.1 µM (inactive), the GI50 (HOP-92) was 6.78 µM (inactive) and the GI50 (HT-29) was 4.59 µM (inactive). The GI50 (Hs-578T) was 28.1 µM (inactive), the GI50 (IGROV-1) was 6.97 µM (inactive) and the GI50 (K562) was 3.38 µM (inactive). For the same compound, the GI50 (KM12) was 4.37 µM (inactive), the GI50 (LOX IMVI) was 2.6 µM (inactive) and the GI50 (M14) was 9.27 µM (inactive). The GI50 (MCF7) was 3.42 µM (inactive), the GI50 (MDA-MB-231) was 11.7 µM (inactive) and the GI50 (MDA-MB-435) was 2.6 µM (inactive). The GI50 (MDA-N) was 3.32 µM (inactive), the GI50 (MOLT-4) was 2.84 µM (inactive) and the GI50 (Malme-3M) was 13.4 µM (inactive). The GI50 (NCI-H226) was 11.5 µM (inactive), the GI50 (NCI-H23) was 9.75 µM (inactive) and the GI50 (NCI-H460) was 12.1 µM (inactive). For the same compound, the GI50 (NCI/ADR-RES) was 2.15 µM (inactive), the GI50 (OVCAR-3) was 5.57 µM (inactive) and the GI50 (OVCAR-4) was 5.79 µM (inactive). For the same compound, the GI50 (OVCAR-5) was 11.6 µM (inactive), the GI50 (OVCAR-8) was 2.75 µM (inactive) and the GI50 (PC-3) was 4.42 µM (inactive). The GI50 (RPMI-8226) was 2.07 µM (inactive), the GI50 (RXF 393) was 4.04 µM (inactive) and the GI50 (SF-268) was 11.1 µM (inactive). For the same compound, the GI50 (SF-295) was 12.4 µM (inactive), the GI50 (SF-539) was 3.52 µM (inactive) and the GI50 (SK-MEL-28) was 12.9 µM (inactive). The GI50 (SK-MEL-2) was 5.7 µM (inactive), the GI50 (SK-MEL-5) was 11.6 µM (inactive) and the GI50 (SK-OV-3) was 13.4 µM (inactive). The GI50 (SN12C) was 6.19 µM (inactive), the GI50 (SNB-19) was 17.7 µM (inactive) and the GI50 (SNB-75) was 7.62 µM (inactive). The GI50 (SR) was 2.54 µM (inactive), the GI50 (SW-620) was 5.22 µM (inactive) and the GI50 (T47D) was 4.04 µM (inactive). The GI50 (TK-10) was 13.6 µM (inactive), the GI50 (U-251) was 4.65 µM (inactive) and the GI50 (UACC-257) was 12.1 µM (inactive). The GI50 (UACC-62) was 6.65 µM (inactive) and the GI50 (UO-31) was 11.5 µM (inactive).
